For the test, the target named is USP7 (Homo sapiens (Human), UniProt Q93009). In words: USP7 fluorescence polarisation (FP) biochemical assay, ubiquitin-Lys-TAMRA substrate. Here is the method:
Measurement of USP7 Inhibitory Activity
USP7 activity was monitored in a fluorescence polarisation (FP) homogeneous assay using the isopeptide ubiquitin-Lys-TAMRA substrate (U-558, Boston Biochem). Full-length USP7 was purchased from Boston Biochem (His6-USP7FL, E-519). Unless otherwise stated, all other reagents were purchased from Sigma-Aldrich. Enzymatic reactions were conducted in black flat-bottom polystyrene 384-well plates (Nunc) and 15 μL total volume. USP7 (2.5 nM, 5 μL) was incubated in assay buffer (50 mM HEPES (pH 7.2), 150 mM NaCl, 0.5 mM EDTA, 5 mM DTT, 0.05% BSA (w/v), 0.05% CHAPS) in the presence or absence of inhibitor (5 μl). Inhibitors were stored as 10 mM DMSO stocks in an inert environment (low humidity, dark, low oxygen, room temperature) using a Storage Pod System and serial dilutions were prepared in buffer just prior to the assay (from 200 to 0.1 μM, 8 dp curve). […] FP was measured every 15 min over a period of 1.5 h (within the linear range of the assay) using a Synergy 4 plate reader (BioTek) exciting at 530 nm and measuring the amount of parallel and perpendicular light at 575 nm. The FP signal was subsequently normalised to the control without compound present.

Where [1] appears, read: USP7 IC50, Table 4, biochemical assay, average of at least duplicate experiments.
Where [2] appears, read: Table 4, biochemical assay, average of at least duplicate experiments, read-out: USP7 IC50.

SMILES strings stand for the structures. Read-outs that look alike come from different tables or passages of the source. A value given as a limit tells only on which side of the number the result lay.

Chain of USP7 (Q93009 whole entry): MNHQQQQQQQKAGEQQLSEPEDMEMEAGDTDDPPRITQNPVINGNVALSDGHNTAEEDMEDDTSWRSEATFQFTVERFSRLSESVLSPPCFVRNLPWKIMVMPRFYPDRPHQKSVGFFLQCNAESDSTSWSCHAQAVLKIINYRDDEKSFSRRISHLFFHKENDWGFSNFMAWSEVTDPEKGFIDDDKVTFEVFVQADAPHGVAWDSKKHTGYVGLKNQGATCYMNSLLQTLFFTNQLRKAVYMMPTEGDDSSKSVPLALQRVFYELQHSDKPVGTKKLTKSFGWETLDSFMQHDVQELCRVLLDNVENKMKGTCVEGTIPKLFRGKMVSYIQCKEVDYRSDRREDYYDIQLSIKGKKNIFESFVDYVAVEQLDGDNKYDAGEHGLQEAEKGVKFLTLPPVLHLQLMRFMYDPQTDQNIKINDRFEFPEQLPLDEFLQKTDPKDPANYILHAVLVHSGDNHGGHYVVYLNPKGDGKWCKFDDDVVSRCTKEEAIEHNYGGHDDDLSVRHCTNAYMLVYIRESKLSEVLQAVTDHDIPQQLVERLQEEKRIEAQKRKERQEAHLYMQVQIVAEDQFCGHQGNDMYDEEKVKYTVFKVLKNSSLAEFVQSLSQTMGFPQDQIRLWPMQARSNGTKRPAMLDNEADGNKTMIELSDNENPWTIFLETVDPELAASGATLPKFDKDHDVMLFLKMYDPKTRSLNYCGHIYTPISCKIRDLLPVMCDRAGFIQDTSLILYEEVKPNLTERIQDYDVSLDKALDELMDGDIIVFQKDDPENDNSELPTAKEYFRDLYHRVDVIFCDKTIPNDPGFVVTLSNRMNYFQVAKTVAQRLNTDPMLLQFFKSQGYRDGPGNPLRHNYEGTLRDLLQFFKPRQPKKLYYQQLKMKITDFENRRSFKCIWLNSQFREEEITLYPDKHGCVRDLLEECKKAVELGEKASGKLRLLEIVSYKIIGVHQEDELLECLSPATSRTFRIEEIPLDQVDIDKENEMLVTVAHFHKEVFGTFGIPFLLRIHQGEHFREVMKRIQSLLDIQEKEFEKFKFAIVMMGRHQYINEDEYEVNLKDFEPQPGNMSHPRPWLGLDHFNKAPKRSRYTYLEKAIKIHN

For `C[C@H](CC(=O)N1CCC(O)(Cn2cnc(N3CC4(CCOC4)C3)cc2=O)CC1)c1ccccc1` [Example 176, (R)-3-((4-hydroxy-1-(3-phenylbutanoyl)piperidin-4-yl)methyl)-6-(6-oxa-2-azaspiro[3.4]octan-2-yl)pyrimidin-4(3H)-one], the half-inhibitory concentration (IC50) under setting [1] fell in the range of 250 to 999 nM.

With `Cn1nc2c(=O)n(CC3(O)CCN(C(=O)C[C@H](c4ccccc4)C(F)(F)F)CC3)cnc2c1-c1ccc([C@@H](N)C(F)(F)F)cc1` [Example 118, 3-(4-((R)-1-Amino-2,2,2-trifluoroethyl)phenyl)-6-((4-hydroxy-1-((R)-4,4,4-trifluoro-3-phenylbutanoyl)piperidin-4-yl)methyl)-2-methyl-2H-pyrazolo[4,3-d]pyrimidin-7(6H)-one], the IC50 under setting [1] was in the range of 250 to 999 nM.

In the case of `C[C@H](CC(=O)N1CCC(O)(Cn2cnc3c(-c4ccc(C5(N)CCC5)cc4)n(C)nc3c2=O)CC1)c1ccccc1` [Example 182, (R)-3-(4-(1-Aminocyclobutyl)phenyl)-6-((4-hydroxy-1-(3-phenylbutanoyl)piperidin-4-yl)methyl)-2-methyl-2H-pyrazolo[4,3-d]pyrimidin-7(6H)-one], the half-maximal inhibitory concentration (IC50) under setting [2] was under 250 nM.

In the case of `Cn1nc2c(=O)n(CC3(O)CCN(C(=O)CCc4ccccc4)CC3)cnc2c1C(F)(F)F` [Example 95, 6-((4-Hydroxy-1-(3-phenylpropanoyl)piperidin-4-yl)methyl)-2-methyl-3-(trifluoromethyl)-2H-pyrazolo[4,3-d]pyrimidin-7(6H)-one], the IC50 under setting [2] was in the range of 1000 to 200000 nM.

For the compound `O=C(c1cnc(C2CC2)o1)N1CCC(O)(Cn2cnc3c(cc(Cl)n3-c3ccc(F)cc3)c2=O)CC1` [Example 205, 6-Chloro-3-((1-(2-cyclopropyloxazole-5-carbonyl)-4-hydroxypiperidin-4-yl)methyl)-7-(4-fluorophenyl)-3H-pyrrolo[2,3-d]pyrimidin-4(7H)-one], the half-inhibitory concentration (IC50) under setting [2] is under 250 nM.

Regarding `O=C(CC(C1CC1)C1CC1)N1CCC(O)(Cn2cnc3c(nnn3-c3ccccc3)c2=O)CC1` [Example 187, 6-((1-(3,3-Dicyclopropylpropanoyl)-4-hydroxypiperidin-4-yl)methyl)-3-phenyl-3H-[1,2,3]triazolo[4,5-d]pyrimidin-7(6H)-one], the IC50 under setting [2] was 250 to 999 nM.

For `C[C@H](CC(=O)N1CCC(O)(Cn2cnc(-c3ccncc3)cc2=O)CC1)c1ccccc1` [Example 2, (R)-3-((4-Hydroxy-1-(3-phenylbutanoyl)piperidin-4-yl)methyl)-6-(pyridin-4-yl)pyrimidin-4(3H)-one], the IC50 under setting [2] fell in the range of 1000 to 200000 nM.

For the compound `C[C@H](CC(=O)N1CCC(O)(Cn2cnc3c(ncn3C)c2=O)CC1)c1ccccc1` [Example 15, (R)-1-((4-Hydroxy-1-(3-phenylbutanoyl)piperidin-4-yl)methyl)-9-methyl-1H-purin-6(9H)-one], under setting [2], the IC50 lay in the range of 1000 to 200000 nM.

As for `COCC1CN(c2cc(=O)n(CC3(O)CCN(C(=O)C[C@@H](C)c4ccccc4)CC3)cn2)C1` [Example 141, (R)-3-((4-hydroxy-1-(3-phenylbutanoyl)piperidin-4-yl)methyl)-6-(3-(methoxymethyl)azetidin-1-yl)pyrimidin-4(3H)-one], the IC50 under setting [2] lay within 1000 to 200000 nM.

Turning to `Cc1nc2c(=O)n(CC3(O)CCN(C(=O)C[C@@H](C)c4ccccc4)CC3)cnc2n1-c1ccccc1` [Example 188, (R)-1-((4-Hydroxy-1-(3-phenylbutanoyl)piperidin-4-yl)methyl)-8-methyl-9-phenyl-1H-purin-6(9H)-one], the IC50 under setting [2] is under 250 nM.

In the case of `Cn1nc2c(=O)n(CC3(O)CCN(C(=O)CCc4ccccc4)CC3)cnc2c1C(F)(F)F` [Example 39, 6-((4-Hydroxy-1-(3-phenylpropanoyl)piperidin-4-yl)methyl)-2-methyl-3-(trifluoromethyl)-2H-pyrazolo[4,3-d]pyrimidin-7(6H)-one], the half-inhibitory concentration (IC50) runs as follows: (Table 3, effect of the R2 substituent, read-out: USP7 IC50) 14000 nM; under setting [2], 1000 to 200000 nM.

Take `COc1ccc(-n2c(Cl)cc3c(=O)n(CC4(O)CCN(C(=O)c5cnc(C6CC6)o5)CC4)cnc32)cc1OC` [Example 240, 6-Chloro-3-((1-(2-cyclopropyloxazole-5-carbonyl)-4-hydroxypiperidin-4-yl)methyl)-7-(3,4-dimethoxyphenyl)-3,7-dihydro-4H-pyrrolo[2,3-d]pyrimidin-4-one]: the IC50 under setting [2] is under 250 nM.

In the case of `C[C@H](CC(=O)N1CCC(O)(Cn2cnc(N)cc2=O)CC1)c1ccccc1` [Example 5, (R)-6-Amino-3-((4-hydroxy-1-(3-phenylbutanoyl)piperidin-4-yl)methyl)pyrimidin-4(3H)-one], under setting [2], the half-inhibitory concentration (IC50) fell in the range of 1000 to 200000 nM.

Regarding `C[C@H](N)c1ccc(-c2c3ncn(CC4(O)CCN(C(=O)C[C@H](c5ccccc5)C(F)(F)F)CC4)c(=O)c3nn2C)cc1` [Example 76, 3-(4-((S)-1-Aminoethyl)phenyl)-6-((4-hydroxy-1-((R)-4,4,4-trifluoro-3-phenylbutanoyl)piperidin-4-yl)methyl)-2-methyl-2H-pyrazolo[4,3-d]pyrimidin-7(6H)-one], the IC50 under setting [2] was under 250 nM.

With `CC1(C(=O)N2CCC(O)(Cn3cnc4c(cc(Cl)n4-c4cccc(Br)c4)c3=O)CC2)CC1` [Example 214, 7-(3-Bromophenyl)-6-chloro-3-((4-hydroxy-1-(1-methylcyclopropanecarbonyl)piperidin-4-yl)methyl)-3H-pyrrolo[2,3-d]pyrimidin-4(7H)-one], the IC50 under setting [2] is 250 to 999 nM.

On to `C[C@H](CC(=O)N1CCC(O)(Cn2cnc(NCc3ccc4c(c3)OCCO4)cc2=O)CC1)c1ccccc1` [Example 162, (R)-6-(((2,3-dihydrobenzo[b][1,4]dioxin-6-yl)methyl)amino)-3-((4-hydroxy-1-(3-phenylbutanoyl)piperidin-4-yl)methyl)pyrimidin-4(3H)-one], for which the IC50 under setting [2] lay within 1000 to 200000 nM.

In the case of `C[C@H](CC(=O)N1CCC(O)(Cn2cnc(N3CCC(O)CC3)cc2=O)CC1)c1ccccc1` [Example 144, (R)-3-((4-hydroxy-1-(3-phenylbutanoyl)piperidin-4-yl)methyl)-6-(4-hydroxypiperidin-1-yl)pyrimidin-4(3H)-one], the IC50 under setting [2] fell in the range of 1000 to 200000 nM.

Turning to `C[C@H](CC(=O)N1CCC(O)(Cn2cnc3c(-c4ccccc4)cnn3c2=O)CC1)c1ccccc1` [Example 139, (R)-3-((4-Hydroxy-1-(3-phenylbutanoyl)piperidin-4-yl)methyl)-8-phenylpyrazolo[1,5-a][1,3,5]triazin-4(3H)-one], the IC50 under setting [2] was under 250 nM.

`C[C@H](CC(=O)N1CCC(O)(Cn2cnc(N3CCN(Cc4cccnc4)CC3)cc2=O)CC1)c1ccccc1` [Example 158, (R)-3-((4-hydroxy-1-(3-phenylbutanoyl)piperidin-4-yl)methyl)-6-(4-(pyridin-3-ylmethyl)piperazin-1-yl)pyrimidin-4(3H)-one]: under setting [2], the IC50 fell in the range of 1000 to 200000 nM.

Consider `C[C@H](CC(=O)N1CCC(O)(Cn2cnc(/C=C/CN3CC[C@H](N)C3)cc2=O)CC1)c1ccccc1` [Example 56, 6-((E)-3-((S)-3-Aminopyrrolidin-1-yl)prop-1-en-1-yl)-3-((4-hydroxy-1-((R)-3-phenylbutanoyl)piperidin-4-yl)methyl)pyrimidin-4(3H)-one, Formic Acid], for which the half-inhibitory concentration (IC50) under setting [2] lay within 1000 to 200000 nM.

As to `CC1(C(=O)N2CCC(O)(Cn3cnc4c(cc(Cl)n4-c4csc(CO)c4)c3=O)CC2)CC1` [Example 201, 6-Chloro-3-((4-hydroxy-1-(1-methylcyclopropanecarbonyl)piperidin-4-yl)methyl)-7-(5-(hydroxymethyl)thiophen-3-yl)-3H-pyrrolo[2,3-d]pyrimidin-4(7H)-one], the IC50 under setting [2] was under 250 nM.

The record behind these values is US10766903B2 (ALMAC DISCOVERY LIMITED, priority 2016, dated 2020).
